The values that follow come from patent US20250257064A1, “TRIFLUOROMETHYL-SUBSTITUTED SULFONAMIDE AS BCL-2-SELECTIVE INHIBITOR” (Chia Tai Tianqing Pharmaceutical Group Co., Ltd., priority 2018, published 2025).

For one assay, the target named is T1, BCL-2/BAK (Homo sapiens, UniProt P10415).
T1 construct: purchased Cisbio
The experiment in a line: Screening on inhibitory activity for BCL-2/BAK binding (Cisbio HTRF kit). The protocol: 1.1 Screening on Inhibitory Activity for BCL-2/BAK Binding
500 nM Tag1-BCL-2 protein stock solution and 20 μM Tag2-BAK protein stock solution were diluted to 5 nM and 120 nM respectively with dilution buffer in kit (model: BCL-2/BAK (BH3) BINDING ASSAY KITS, from Cisbio). 5 μL of Tag1-BCL-2 protein diluent was added to each well, then different compounds dissolved with DMSO were added to the wells with a nanoliter pipettor, allowing the final compound concentrations to be 200 nM to 0.0488 nM (4-fold gradient for 7 concentrations in total). Blank control wells (without enzyme) and negative control wells (with enzyme, plus vehicle DMSO) were set, and 2 replicate wells were set. Finally, 5 μL of Tag2-BAK protein diluent was added to each well, and the mixture was mixed well by centrifugation and incubated at 25° C. for 15 min. 100× anti-Tag1-Eu^3+ and 100× anti-Tag2-XL665 were both diluted to 1× working concentration with the detection buffer in the kit. Anti-Tag1-Eu^3+ and anti-Tag2-XL665 were mixed well in a 1:1 ratio, and the mixture was added to wells at 5 μL/well, and incubated at 25° C. for 2 h or more. The plate was read using a PE Envision multi-functional microplate reader (excitation: […], emission: 665 nm) and IC50 (shown in table 1) was calculated by four-parameter fitting.
(In general: TR-FRET usually uses a lanthanide donor and a delayed reading to cut background.)

In another assay the target is T2, BCL-XL/BAK (Homo sapiens, UniProt Q07817).
T2 construct: purchased Cisbio
T2 sequence (Q07817 whole entry, species assumed): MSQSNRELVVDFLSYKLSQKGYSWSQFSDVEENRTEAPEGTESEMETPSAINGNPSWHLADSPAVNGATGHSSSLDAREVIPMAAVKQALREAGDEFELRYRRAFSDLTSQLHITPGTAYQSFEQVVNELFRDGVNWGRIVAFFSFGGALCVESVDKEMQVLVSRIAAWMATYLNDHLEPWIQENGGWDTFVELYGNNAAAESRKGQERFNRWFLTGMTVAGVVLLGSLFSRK
Description: Screening on inhibitory activity for BCL-XL/BAK binding (Cisbio HTRF kit). The protocol:
1.2 Screening on Inhibitory Activity for BCL-XL/BAK Binding
300 nM Tag1-BCL-XL protein stock solution and 10 μM Tag2-BAK protein stock solution were diluted to 2 nM and 80 nM respectively with dilution buffer in kit (model: BCL-XL/BAK (BH3) BINDING ASSAY KITS, from Cisbio). 5 μL of Tag1-BCL-XL protein diluent was added to each well, then different compounds dissolved with DMSO were added to the wells with a nanoliter pipettor, allowing the final compound concentrations to be 2000 nM to 0.488 nM (4-fold gradient for 7 concentrations in total). Blank control wells (without enzyme) and negative control wells (with enzyme, plus vehicle DMSO) were set, and 2 replicate wells were set. Finally, 5 μL of Tag2-BAK protein diluent was added to each well, and the mixture was mixed well by centrifugation and incubated at 25° C. for 15 min. 100× anti-Tag1-Eu^3+ and 100× anti-Tag2-XL665 were both diluted to 1× working concentration with the detection buffer in the kit. Anti-Tag1-Eu^3+ and anti-Tag2-XL665 were mixed well in a 1:1 ratio, and the mixture was added to wells at 5 µL/well, and incubated at 25° C. for 2 h or more. The plate was read using a PE Envision multi-functional microplate reader (excitation: […], emission: 665 nm) and IC50 (shown in table 1) was calculated by four-parameter fitting.

The next assay deals with RS4;11 cells. Description: Inhibitory effect on proliferation of RS4;11 cells (CCK-8). Format: cell-based, human. As to conditions: Homo sapiens, RS4-11, 72 h. The protocol:
Experimental Example 2: Inhibitory Effect of Compounds on Proliferation of RS4;11 Cells
RS4;11 cells (from Nanjing Cobioer) in logarithmic growth phase and good cell condition were added to a centrifuge tube and centrifuged at 1500 rpm for 3 min in a low speed centrifuge. The supernatant was discarded, and 5 mL of complete medium (RPMI basic medium+10 wt % fetal bovine serum (FBS)) was added using a pipette for cell resuspension. The cells were counted using a cell counter, diluted with complete medium to a cell density of 2×10^5 cells/mL, and added with an equivalent amount of RPMI basic medium to adjust the serum concentration to 5% and the cell density to 1×10^5 cells/mL for plate seeding. The cells were seeded on a 96-well plate at 100 μL/well using a pipettor, and incubated in an incubator at 37° C., 5% CO2 with saturated humidity. After 24 h of incubation, compounds were loaded using a nanoliter pipettor, 2 duplicate wells were set for each concentration, and cells without compound were used as negative controls. […] Inhibition rate (%)=(mean value of negative control group—mean value of experimental group)/(mean value of negative control group—mean value of blank group)×100%. A dose-response curve was fitted by four-parameter analysis, with the logarithm of compound concentration serving as abscissa and inhibition rate serving as ordinate, so that IC50 was calculated (FIG. 2).

T1 sequence (P10415 whole entry, species assumed): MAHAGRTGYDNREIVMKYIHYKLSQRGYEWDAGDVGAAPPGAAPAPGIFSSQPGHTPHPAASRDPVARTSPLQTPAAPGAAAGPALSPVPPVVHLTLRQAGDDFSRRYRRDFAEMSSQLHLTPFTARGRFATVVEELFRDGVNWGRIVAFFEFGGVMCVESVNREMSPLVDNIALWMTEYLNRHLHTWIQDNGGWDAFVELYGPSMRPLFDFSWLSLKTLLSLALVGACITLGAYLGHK

With `CC(C)C(=O)N1CCO[C@@H](CNc2ccc(S(=O)(=O)NC(=O)c3ccc(N4CCN(CC5=C(c6ccc(C(F)(F)F)cc6Cl)CC(C)(C)CC5)CC4)cc3Oc3cnc4[nH]ccc4c3)cc2[N+](=O)[O-])C1` [Compound 62-1, (S)-4-(4-{[2-(2-chloro-4-trifluoromethylphenyl)-4,4-dimethylcyclohex-1-enyl]methyl}-piperazin-1-yl)-N-({3-nitro-4-[((4-isobutyrylmorpholin-2-yl)methyl)amino]phenyl}sulfonyl)-2-(1H-pyrrolo[2,3-b]pyridin-5-yloxy)-benzamide], the IC50 (in general, the point on the concentration scale where inhibition reaches its midpoint) at BCL-2/BAK was 2.35 nM; on BCL-XL/BAK it was 145 nM; with RS4;11 cells, 4.1 nM.

On to `CC1(C)CCC(CN2CCN(c3ccc(C(=O)NS(=O)(=O)c4ccc(NC[C@H]5CN(S(C)(=O)=O)CCO5)c([N+](=O)[O-])c4)c(Oc4cnc5[nH]ccc5c4)c3)CC2)=C(c2ccc(C(F)(F)F)cc2Cl)C1` [Compound 63-1, (S)-4-(4-{[2-(2-chloro-4-trifluoromethylphenyl)-4,4-dimethylcyclohex-1-enyl]methyl}-piperazin-1-yl)-N-({3-nitro-4-[(((4-(methylsulfonyl)morpholin)-2-yl)methyl)amino]phenyl}sulfonyl)-2-(1H-pyrrolo[2,3-b]pyridin-5-yloxy)-benzamide], for which the IC50 on BCL-2/BAK was 2.3 nM; on BCL-XL/BAK it was 217 nM; in the assay on RS4;11 cells it was 1.4 nM.

Regarding `CC(C)C(=O)N1CCO[C@H](CNc2ccc(S(=O)(=O)NC(=O)c3ccc(N4CCN(CC5=C(c6ccc(C(F)(F)F)cc6Cl)CC(C)(C)CC5)CC4)cc3Oc3cnc4[nH]ccc4c3)cc2[N+](=O)[O-])C1` [Compound 66-1, (R)-4-(4-{[2-(2-chloro-4-trifluoromethylphenyl)-4,4-dimethylcyclohex-1-enyl]methyl}-piperazin-1-yl)-N-({3-nitro-4-[((4-isobutyrylmorpholin-2-yl)methyl)amino]phenyl}sulfonyl)-2-(1H-pyrrolo[2,3-b]pyridin-5-yloxy)-benzamide], the IC50 came out at 2.6 nM on BCL-2/BAK, 273 nM at BCL-XL/BAK and 3.3 nM in the assay on RS4;11 cells.

In the case of `CC1(C)CCC(CN2CCN(c3ccc(C(=O)NS(=O)(=O)c4ccc(NC[C@@H]5CN(S(C)(=O)=O)CCO5)c([N+](=O)[O-])c4)c(Oc4cnc5[nH]ccc5c4)c3)CC2)=C(c2ccc(C(F)(F)F)cc2Cl)C1` [Compound 67-1, (R)-4-(4-{[2-(2-chloro-4-trifluoromethylphenyl)-4,4-dimethylcyclohex-1-enyl]methyl}-piperazin-1-yl)-N-({3-nitro-4-[(((4-(methylsulfonyl)morpholin)-2-yl)methyl)amino]phenyl}sulfonyl)-2-(1H-pyrrolo[2,3-b]pyridin-5-yloxy)-benzamide], the IC50 was determined as 0.6 nM at BCL-2/BAK, 199 nM at BCL-XL/BAK and 0.8 nM in the assay on RS4;11 cells.

Consider `CC1(C)CCC(CN2CCN(c3ccc(C(=O)NS(=O)(=O)c4ccc(NCCCC5CN(S(C)(=O)=O)CCO5)c([N+](=O)[O-])c4)c(Oc4cnc5[nH]ccc5c4)c3)CC2)=C(c2ccc(C(F)(F)F)cc2Cl)C1` (stereo not drawn) [Compound 71-1, 4-(4-{[2-(2-chloro-4-trifluoromethylphenyl)-4,4-dimethylcyclohex-1-enyl]methyl}-piperazin-1-yl)-N-({3-nitro-4-[(3-(4-(2-methylsulfonyl)morpholin-2-yl)propyl)amino]phenyl}sulfonyl)-2-(1H-pyrrolo[2,3-b]pyridin-5-yloxy)-benzamide], for which the IC50 stood at 0.76 nM at BCL-2/BAK, 109 nM at BCL-XL/BAK and 6.1 nM with RS4;11 cells.

Consider `COCC(=O)N1CCC(CNc2ccc(S(=O)(=O)NC(=O)c3ccc(N4CCN(CC5=C(c6ccc(C(F)(F)F)cc6Cl)CC(C)(C)CC5)CC4)cc3Oc3cnc4[nH]ccc4c3)cc2[N+](=O)[O-])CC1` [Compound 73-1, 4-(4-{[2-(2-chloro-4-trifluoromethylphenyl)-4,4-dimethylcyclohex-1-enyl]methyl}-piperazin-1-yl)-N-({3-nitro-4-[((1-(2-methoxyacetyl)piperidin-4-yl)methyl)amino]phenyl}sulfonyl)-2-(1H-pyrrolo[2,3-b]pyridin-5-yloxy)-benzamide], for which the IC50 at BCL-2/BAK came to 1.6 nM; at BCL-XL/BAK it was 204 nM; with RS4;11 cells it was 1.5 nM.

For the compound `CCOC(=O)N1CCOC(CNc2ccc(S(=O)(=O)NC(=O)c3ccc(N4CCN(CC5=C(c6ccc(C(F)(F)F)cc6Cl)CC(C)(C)CC5)CC4)cc3Oc3cnc4[nH]ccc4c3)cc2[N+](=O)[O-])C1` (stereo not drawn) [Compound 74-1, 4-(4-{[2-(2-chloro-4-trifluoromethylphenyl)-4,4-dimethylcyclohex-1-enyl]methyl}-piperazin-1-yl)-N-({3-nitro-4-[((4-(ethoxyformyl)morpholin-2-yl)methyl)amino]phenyl}sulfonyl)-2-(1H-pyrrolo[2,3-b]pyridin-5-yloxy)-benzamide], the IC50 came out at 1.66 nM at BCL-2/BAK, 252 nM at BCL-XL/BAK and 6.9 nM in the assay with RS4;11 cells.

Consider `COC(=O)N1CCOC(CNc2ccc(S(=O)(=O)NC(=O)c3ccc(N4CCN(CC5=C(c6ccc(C(F)(F)F)cc6Cl)CC(C)(C)CC5)CC4)cc3Oc3cnc4[nH]ccc4c3)cc2[N+](=O)[O-])C1` (stereo not drawn) [Compound 75-1, 4-(4-{[2-(2-chloro-4-trifluoromethylphenyl)-4,4-dimethylcyclohex-1-enyl]methyl}-piperazin-1-yl)-N-({3-nitro-4-[((4-(methoxyformyl)morpholin-2-yl)methyl)amino]phenyl}sulfonyl)-2-(1H-pyrrolo[2,3-b]pyridin-5-yloxy)-benzamide], for which the IC50 on BCL-2/BAK worked out at 3.5 nM; at BCL-XL/BAK it was 322 nM; in the assay with RS4;11 cells, 3.9 nM.
